Laboratory results as given in ChEMBL document CHEMBL1128559, “Inhibition of the oncogene product p185erbB-2 in vitro and in vivo by geldanamycin and dihydrogeldanamycin derivatives” (J Med Chem, 1995).

How the values were obtained:
Mus musculus [1] = test: In vivo inhibition of phospho-p185erbB-2 expression in human SK-BR-3 tumors at 50 mg/kg ip dose in mice; type: functional; settings: SK-BR-3, ip, route intraperitoneal
SK-BR-3 [2] = test: In vitro inhibition of phospho-p185erbB-2 expression in human breast cancer cells(SK-BR-3 cells) at 50 mg/kg dose; type: functional; set-up: dose 50 mg/kg
Mus musculus [3] = test: In vivo inhibition of phospho-p185erbB-2 expression in FRE/erbB-2 tumors at 400 mg/kg ip dose in mice; settings: FRE/erbB-2, ip
Mus musculus [4] = test: In vivo inhibition of phospho-p185erbB-2 expression in human SK-BR-3 tumors at 100 mg/kg ip dose in mice; type: functional; settings: SK-BR-3, ip, route intraperitoneal
SK-BR-3 [5] = test: Inhibition of oncogene product p185 erbB-2 from human breast cancer cells(SK-BR-3 cells) at 50 mg/kg dose.; type: functional
Mus musculus [6] = test: In vivo inhibition of phospho-p185erbB-2 expression in FRE/erbB-2 tumors in nu/nu mice at 200 mg/kg dose.
Mus musculus [7] = test: In vivo inhibition of phospho-p185erbB-2 expression in FRE/erbB-2 tumors in nu/nu mice at 100 mg/kg dose.
SK-BR-3 [8] = test: Inhibition of oncogene product p185 erbB-2 from human breast cancer cells(SK-BR-3 cells).
Mus musculus [9] = species on record: Mus musculus; settings: 400 mg/kg
Description: In vivo inhibition of phospho-p185erbB-2 expression in human SK-BR-3 tumors at 400 mg/kg dose in mice (lethal)

Mus musculus [10] = test: In vivo inhibition of phospho-p185erbB-2 expression in FRE/erbB-2 tumors at 200 mg/kg dose ip in mice; settings: FRE/erbB-2, ip
SK-BR-3 [11] = test: […] inhibition of phospho-p185erbB-2 expression in human breast cancer cells(SK-BR-3 cells) at 200 mg/kg dose.; type: functional
Mus musculus [12] = test: In vivo inhibition of phospho-p185erbB-2 expression in FRE/erbB-2 tumors at 200 mg/kg dose in mice
Mus musculus [13] = test: In vivo inhibition of phospho-p185erbB-2 expression in FRE/erbB-2 tumors at 400 mg/kg dose in mice
Mus musculus [14] = test: In vivo inhibition of phospho-p185erbB-2 expression in human SK-BR-3 tumors at 100 mg/kg dose in mice; type: functional
Mus musculus [15] = test: In vivo inhibition of phospho-p185erbB-2 expression in FRE/erbB-2 tumors at 50 mg/kg dose in mice

Structure (SMILES)	IC50 (SK-BR-3 [8]) [nM]	inhibition in vivo at 200 mg/kg (Mus musculus [6]) [%]	inhibition in vivo at 100 mg/kg (Mus musculus [7]) [%]	further results
CO[C@H]1/C=C\C=C(/C)C(=O)NC2=CC(=O)C=C(C[C@@H](C)C[C@H](OC)[C@H](O)[C@@H](C)/C=C(\C)[C@@H]1OC(N)=O)C2=O				inhibition in vivo at 50 mg/kg (Mus musculus [1]): 29%; IC50 (SK-BR-3 [2]): 300 nM; inhibition in vivo at 400 mg/kg (Mus musculus [3]): 57%; inhibition in vivo at 100 mg/kg (Mus musculus [4]): 34%
CO[C@H]1/C=C\C=C(/C)C(=O)NC2=CC3=NC(N(C)C)=NC3=C(C[C@@H](C)C[C@H](OC)[C@H](O)[C@@H](C)/C=C(\C)[C@@H]1OC(N)=O)C2=O				IC50 (SK-BR-3 [5]): 50 nM
CO[C@H]1/C=C\C=C(/C)C(=O)NC2=CC3=NC(N(C)Cc4ccccc4)=NC3=C(C[C@@H](C)C[C@H](OC)[C@H](O)[C@@H](C)/C=C(\C)[C@@H]1OC(N)=O)C2=O				IC50 (SK-BR-3 [5]): 300 nM
CO[C@H]1C[C@H](C)CC2=C(N)C(=O)C=C(NC(=O)/C(C)=C/CC[C@H](OC)[C@@H](OC(N)=O)/C(C)=C/[C@H](C)[C@H]1O)C2=O	40	44	45	
CO[C@H]1/C=C\C=C(/C)C(=O)NC2=CC(=O)C(NCCF)=C(C[C@@H](C)C[C@H](OC)[C@H](O)[C@@H](C)/C=C(\C)[C@@H]1OC(N)=O)C2=O	12	68	50	
CO[C@H]1C[C@H](C)CC2=C(NC3CC3)C(=O)C=C(NC(=O)/C(C)=C/CC[C@H](OC)[C@@H](OC(N)=O)/C(C)=C/[C@H](C)[C@H]1O)C2=O	46		31	
CO[C@H]1C[C@H](C)CC2=C(NCCC#N)C(=O)C=C(NC(=O)/C(C)=C/CC[C@H](OC)[C@@H](OC(N)=O)/C(C)=C/[C@H](C)[C@H]1O)C2=O				IC50 (SK-BR-3 [5]): 30 nM
CO[C@H]1C[C@H](C)CC2=C(NCC(C)O)C(=O)C=C(NC(=O)/C(C)=C/CC[C@H](OC)[C@@H](OC(N)=O)/C(C)=C/[C@H](C)[C@H]1O)C2=O (stereo partly specified)	83	32		
CO[C@H]1/C=C\C=C(/C)C(=O)NC2=CC(=O)C(N)=C(C[C@@H](C)C[C@H](OC)[C@H](O)[C@@H](C)/C=C(\C)[C@@H]1OC(N)=O)C2=O	37	47		
CO[C@H]1/C=C\C=C(/C)C(=O)NC2=CC(=O)C(NCCC#N)=C(C[C@@H](C)C[C@H](OC)[C@H](O)[C@@H](C)/C=C(\C)[C@@H]1OC(N)=O)C2=O				inhibition in vivo at 200 mg/kg (SK-BR-3 [11]): 61%; IC50 (SK-BR-3 [5]): 17 nM
CO[C@H]1C[C@H](C)CC2=C3N=C(N(C)C)N=C3C=C(NC(=O)/C(C)=C/CC[C@H](OC)[C@@H](OC(N)=O)/C(C)=C/[C@H](C)[C@H]1O)C2=O				IC50 (SK-BR-3 [5]): 50 nM
CO[C@H]1C[C@H](C)CC2=C(NCCF)C(=O)C=C(NC(=O)/C(C)=C/CC[C@H](OC)[C@@H](OC(N)=O)/C(C)=C/[C@H](C)[C@H]1O)C2=O	27	53		
CO[C@H]1C[C@H](C)CC2=C(N3CC(O)C3)C(=O)C=C(NC(=O)/C(C)=C/CC[C@H](OC)[C@@H](OC(N)=O)/C(C)=C/[C@H](C)[C@H]1O)C2=O	50	44	29	
CCN(CC)C1=NC2=C3C[C@@H](C)C[C@H](OC)[C@H](O)[C@@H](C)/C=C(\C)[C@H](OC(N)=O)[C@@H](OC)/C=C\C=C(/C)C(=O)NC(=CC2=N1)C3=O				IC50 (SK-BR-3 [5]): 210 nM
CNC1=C2C[C@@H](C)C[C@H](OC)[C@H](O)[C@@H](C)/C=C(\C)[C@H](OC(N)=O)[C@@H](OC)CC/C=C(\C)C(=O)NC(=CC1=O)C2=O	12	37		
CO[C@H]1C[C@H](C)CC2=C(N3CCC3)C(=O)C=C(NC(=O)/C(C)=C/CC[C@H](OC)[C@@H](OC(N)=O)/C(C)=C/[C@H](C)[C@H]1O)C2=O	14	27	38	
CO[C@H]1/C=C\C=C(/C)C(=O)NC2=CC(=O)C(N3CCC3)=C(C[C@@H](C)C[C@H](OC)[C@H](O)[C@@H](C)/C=C(\C)[C@@H]1OC(N)=O)C2=O	23	68	61	
CO[C@H]1C[C@H](C)CC2=C(NCCO)C(=O)C=C(NC(=O)/C(C)=C/CC[C@H](OC)[C@@H](OC(N)=O)/C(C)=C/[C@H](C)[C@H]1O)C2=O	34	55		
COCCNC1=C2C[C@@H](C)C[C@H](OC)[C@H](O)[C@@H](C)/C=C(\C)[C@H](OC(N)=O)[C@@H](OC)CC/C=C(\C)C(=O)NC(=CC1=O)C2=O	33	69	42	
CO[C@H]1/C=C\C=C(/C)C(=O)NC2=C(NCCCN(C)C)C(=O)C(NCCCN(C)C)=C(C[C@@H](C)C[C@H](OC)[C@H](O)[C@@H](C)/C=C(\C)[C@@H]1OC(N)=O)C2=O	> 4100			

Further lines, with some results ahead:

IC50 (SK-BR-3 [8]) [nM]	Structure (SMILES)	inhibition in vivo at 200 mg/kg (Mus musculus [6]) [%]	inhibition in vivo at 100 mg/kg (Mus musculus [7]) [%]	further results
70	COC1=C2C[C@@H](C)C[C@H](OC)[C@H](O)[C@@H](C)/C=C(\C)[C@H](OC(N)=O)[C@@H](OC)/C=C\C=C(/C)C(=O)NC(=CC1=O)C2=O [GELDANAMYCIN]			inhibition in vivo at 50 mg/kg (Mus musculus [1]): 30%; inhibition (Mus musculus [9]): Lethal; inhibition in vivo at 200 mg/kg (Mus musculus [10]): 25%; inhibition in vivo at 100 mg/kg (Mus musculus [4]): 6%
99	CO[C@H]1/C=C\C=C(/C)C(=O)NC2=CC(=O)C(NC[C@H](C)O)=C(C[C@@H](C)C[C@H](OC)[C@H](O)[C@@H](C)/C=C(\C)[C@@H]1OC(N)=O)C2=O	70	65	
31	C=CCNC1=C2C[C@@H](C)C[C@H](OC)[C@H](O)[C@@H](C)/C=C(\C)[C@H](OC(N)=O)[C@@H](OC)/C=C\C=C(/C)C(=O)NC(=CC1=O)C2=O [TANESPIMYCIN]	68	55	inhibition in vivo at 200 mg/kg (Mus musculus [12]): 80%; inhibition in vivo at 400 mg/kg (Mus musculus [13]): 72%; inhibition in vivo at 100 mg/kg (Mus musculus [14]): 60%; inhibition in vivo at 50 mg/kg (Mus musculus [15]): 27%
60	CO[C@H]1/C=C\C=C(/C)C(=O)NC2=CC(=O)C(NC(C)C)=C(C[C@@H](C)C[C@H](OC)[C@H](O)[C@@H](C)/C=C(\C)[C@@H]1OC(N)=O)C2=O	87		
790	CO[C@H]1/C=C\C=C(/C)C(=O)NC2=CC(=O)C(N3CCCC3C(=O)O)=C(C[C@@H](C)C[C@H](OC)[C@H](O)[C@@H](C)/C=C(\C)[C@@H]1OC(N)=O)C2=O (stereo partly specified)			
> 2700	CO[C@H]1/C=C\C=C(/C)C(=O)NC2=CC(=O)C(NCCS(=O)(=O)O)=C(C[C@@H](C)C[C@H](OC)[C@H](O)[C@@H](C)/C=C(\C)[C@@H]1OC(N)=O)C2=O			
